# Reference: patent US10227308B2, “Radiolabeled cannabinoid receptor 2 ligand” (Hoffmann-La Roche Inc., priority 2014, dated 2019)
# Tests used:
# human CB1 receptors = molecular target: T1, human CB1 receptors (Homo sapiens, UniProt P21554); assay: Radioligand competition binding of [^3H]-CP55940, CHO-K1 cell membranes; settings: [^3H]-CP55940 0.3 nM, n=6
# T1 construct: host or cells: CHO-K1 beta-arrestin cells
# Description: (§1) CHO-K1 beta-arrestin cells (DiscoveRx Inc., Fremont, Calif.) expressing human CB1 and human CB2 were cultured in F-12 Nutrient Mixture (HAM) supplemented with 10% FBS, 300 μg ml-1 hygromycin and 800 μg ml-1 geneticin (G418). Cells were incubated in a humidified atmosphere at 37° C. with 5% CO2.
# (§2) Stably transfected cells or spleen tissue were homogenized in 15 mmol L-1 Hepes, 0.3 mmol L-1 EDTA, 1 mmol L-1 EGTA, 2 mmol L-1 MgCl2, complete EDTA-free protease inhibitor (Roche Applied Science, Rotkreuz, Switzerland), pH 7.4 using a glass potter and centrifugation at 47,800 g at 4° C. for 30 min. The pellet was then rehomogenized twice in the same buffer and centrifuged (47,800 g, 4° C., 30 min). […]
# (§3) For competition binding, membrane preparations were incubated either with 0.3 nM of [^3H]-CP55940 in the presence or absence of increasing concentrations of unlabeled (R^1═CH3) compound of formula (I) or with 1.5 nM compound of formula (I) and increasing amounts of membranes (2.5-80 μg) in the presence or absence of CP55940 (10 μM) for 60 min at 30° C. in a final volume of 0.2 mL of 50 mmol L-1 Tris-HCl, 5 mmol L-1 MgCl2, 2.5 mmol L-1 EGTA, 0.1% fatty acid-free BSA and 1% DMSO, pH 7.4, buffer, gently shaking. […] IC50 values and Hill slopes were determined by a four parameter logistic model using ActivityBase (ID Business Solution, Ltd.).
# CB2 receptors [1] = molecular target: T2, CB2 receptors (Homo sapiens, UniProt P34972); assay: as above; design: host or cells: CHO-K1 beta-arrestin cells; settings: [^3H]-CP55940 0.3 nM, n=13
# Description: as §1, §2, §3
# CB2 receptors [2] = molecular target: T3, CB2 receptors (Mus musculus, UniProt P47936); assay: Radioligand binding (1.5 nM) with increasing amounts of membranes, mouse spleen tissue WT; settings: 1.5 nM radioligand
# T3 construct: from tissue; host or cells: mouse spleen (wild type)
# Description: (§4) Stably transfected cells or spleen tissue were homogenized in 15 mmol L-1 Hepes, 0.3 mmol L-1 EDTA, 1 mmol L-1 EGTA, 2 mmol L-1 MgCl2, complete EDTA-free protease inhibitor (Roche Applied Science, Rotkreuz, Switzerland), pH 7.4 using a glass potter and centrifugation at 47,800 g at 4° C. for 30 min. The pellet was then rehomogenized twice in the same buffer and centrifuged (47,800 g, 4° C., 30 min). The final pellet was then resuspended in 75 mmol L-1 Tris, 0.3 mmol L-1 EDTA, 1 mmol L-1 EGTA, 12.5 mmol L-1 MgCl2, 250 mmol L-1 sucrose, pH 7.4 at a protein concentration of 1 to 3 mg mL-1, aliquoted, frozen on dry ice and stored at −80° C.
# as §3
# mouse CB2 receptors = molecular target: T4, mouse CB2 receptors (Mus musculus, UniProt P47936); assay: Radioligand saturation binding using mouse spleen tissue WT
# T4 construct: from tissue; host or cells: mouse spleen (wild type)
# Description: as §4
# Saturation binding was performed with 0.05 to 2.4 nM compound of formula (I) and 40 μg of membrane protein. CP55940 (10 μM) was used to define nonspecific binding. Assay buffer consisted of 50 mmol L-1 Tris-HCl, 5 mmol L-1 MgCl2, 2.5 mmol L-1 EGTA, and 0.1% fatty acid-free BSA, pH 7.4. Assays were initiated by addition of membranes in a final volume of 250 μl/well. Assays were incubated for 2 h at room temperature and then vacuum filtered and rinsed with wash buffer (50 mmol L-1 Tris-HCl, 5 mmol L-1 MgCl2, 2.5 mmol L-1 EGTA, and 0.5% fatty acid-free BSA, pH 7.4) on a Filtermate cell harvester through Packard GF/B filters presoaked in 0.3% polyethylenimine.
# [3] = Radioligand binding using mouse spleen KO (CB2 deficient mice); settings: mouse spleen tissue from CB2 deficient mice, increasing amounts of membranes
# Description: as §4, §3
# CB2 receptors [4] = molecular target: T2, CB2 receptors; assay: Binding of HU-910 / [^3H]-HU-910 to CB2 receptors; settings: CB2 receptors labeled with [^3H]-CP55940
# T4 sequence (P47936 whole entry): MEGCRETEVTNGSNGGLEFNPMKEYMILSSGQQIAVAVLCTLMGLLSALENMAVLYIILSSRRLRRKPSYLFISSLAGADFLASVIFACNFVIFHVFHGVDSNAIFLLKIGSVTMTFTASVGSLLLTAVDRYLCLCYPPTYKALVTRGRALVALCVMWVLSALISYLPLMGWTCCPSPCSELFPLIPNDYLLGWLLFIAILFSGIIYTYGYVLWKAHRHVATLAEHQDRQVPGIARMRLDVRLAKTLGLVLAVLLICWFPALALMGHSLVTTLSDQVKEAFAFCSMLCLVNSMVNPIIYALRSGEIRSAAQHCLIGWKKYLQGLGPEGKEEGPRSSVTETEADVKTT
# T2 sequence (P34972 whole entry): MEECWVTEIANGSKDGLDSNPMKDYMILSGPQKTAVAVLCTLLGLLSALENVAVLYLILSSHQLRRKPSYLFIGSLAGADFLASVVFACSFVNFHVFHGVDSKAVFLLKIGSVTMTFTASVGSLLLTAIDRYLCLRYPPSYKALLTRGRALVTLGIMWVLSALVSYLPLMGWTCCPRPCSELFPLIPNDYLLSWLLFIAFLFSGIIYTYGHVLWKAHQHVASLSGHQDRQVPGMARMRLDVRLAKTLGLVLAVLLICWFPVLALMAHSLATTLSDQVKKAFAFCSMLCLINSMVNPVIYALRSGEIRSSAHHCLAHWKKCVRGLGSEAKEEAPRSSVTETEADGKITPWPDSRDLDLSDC
# T3 sequence (P47936 whole entry): as the sequence (P47936 whole entry) above
# T1 sequence (P21554 whole entry): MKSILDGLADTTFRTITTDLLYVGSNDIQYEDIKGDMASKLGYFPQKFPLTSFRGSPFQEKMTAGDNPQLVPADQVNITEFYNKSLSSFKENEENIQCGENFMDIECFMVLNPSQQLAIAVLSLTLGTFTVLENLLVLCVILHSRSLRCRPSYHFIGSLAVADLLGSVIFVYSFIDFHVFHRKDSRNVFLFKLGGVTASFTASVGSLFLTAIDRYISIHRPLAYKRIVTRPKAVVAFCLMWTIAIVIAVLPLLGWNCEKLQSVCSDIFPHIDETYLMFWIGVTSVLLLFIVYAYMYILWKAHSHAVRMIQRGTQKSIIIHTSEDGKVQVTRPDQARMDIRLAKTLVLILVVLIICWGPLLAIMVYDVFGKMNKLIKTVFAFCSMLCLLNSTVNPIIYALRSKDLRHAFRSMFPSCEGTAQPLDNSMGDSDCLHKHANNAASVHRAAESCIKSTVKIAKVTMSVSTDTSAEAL
compound,measurement,setting,value
Cn1c(C(C)(C)C)cc(=NC(=O)c2cc(C(F)(F)F)ccc2OCC(C)(C)O)n1CC1CCC1,Ki,human CB1 receptors,3890 nM
same,Ki,CB2 receptors [1],1.07 nM
"[3H]C([3H])([3H])n1c(C(C)(C)C)c/c(=N\C(=O)c2cc(C(F)(F)F)ccc2OCC(C)(C)O)n1CC1CCC1 [Example 1, (NE)-N-[5-tert-butyl-2-(cyclobutylmethyl)-1-(tritritiomethyl)pyrazol-3-ylidene]-2-(2-hydroxy-2-methyl-propoxy)-5-(trifluoromethyl)benzamide]",specific binding,CB2 receptors [2],high specific binding
same,saturability of specific binding,mouse CB2 receptors,saturable
same,CB2 receptor expression level (Bmax),mouse CB2 receptors; saturation binding,430 fmol/mg
same,Kd,"mouse CB2 receptors; saturation binding, read-out: half maximal affinity (Kd)",0.58 nM
same,specific binding,[3],lack of specific binding
CCCCCCC(C)(C)c1cc(OC)c(C2=C[C@H]3CC[C@]2(CO)C3(C)C)c(OC)c1 [HU-910],binding to CB2 receptors,CB2 receptors [4],selectively and competitively binds to CB2 receptors
